We go through one molecule from US20140161720A1, “TREATMENT OF ANGIOGENIC- OR VASCULAR-ASSOCIATED DISEASES” (THE GENERAL HOSPITAL CORPORATION, priority 2011, published 2014).

One experiment deals with T1, Rac1 (Homo sapiens, UniProt P63000).
T1 construct: endogenous in cells; host or cells: HUVEC
Nature of the experiment: Rac1 activation pull-down assay (PAK-PBD) in HUVECs. The format is cell-based. The note with it: various concentrations 30 minutes, VEGF stimulated. As for the experimental part: Rac1 and cdc42 activities were measured with a Rac1 (BK035) activation assay biochem kit (Cytoskeleton) according to the manufacturer protocol. In brief, human umbilical vein endothelial cells (HUVECs) were bovine brain extract-starved for 12 hours in 1% FBS-EGM (Lonza) and pretreated with various concentrations of DAL for 30 minutes at 37° C. The HUVECs were then stimulated with VEGF at […] for 15 minutes at 37° C. After stimulation, the cells were immediately incubated on ice, washed twice with PBS, and lysed with lysis buffer. The lysates were pre-cleared and added with 15 μl of PAK-PBD beads for pull-down of activated Rac1 or cdc42. After rocking at 4° C. for 1 hour, the beads were washed once and boiled at 100° C. for 2 minutes. The protein lysates were then resolved in a 8-16% gradient gel (Invitrogen) and transferred to a PVDF membrane. Primary antibodies (anti-Rac1, 1:1000, cytoskeleton or anti-cdc42, 1:1000, cell signaling) were added to bind to the protein overnight at 4° C., followed by incubation with HRP-conjugated secondary antibodies. Protein activity was measured by the standard ECL method (Amersham).
Without wishing to be bound by theory, DAL brings about its antivascular effects by destabilizing cell adhesion through the actin cytoskeleton. […] Therefore, potential targets of DAL in signaling pathways involved in actin remodeling were evaluated. […]

A further experiment deals with MDA-MB-231 cells. Nature of the experiment: Cell spreading and F-actin visualization on fibronectin (phalloidin). The experiment is classed as cell-based, human. The conditions noted are these: 5 μM, two hours. The source says:
FIGS. 1A to 1E show a schematics of an exemplary drug screen for antivascular agent described herein, e.g., dehydro-alpha-lapachone (DAL) and effects of DAL on cell adhesion properties. […] Of the 50,000 compounds screened, 86 compounds were selected to test in the secondary assays. Only compounds that made MDA-MB-231 cells more rounded, with less spreading than control cells, and interfered with actin regulation were selected for further study. All these selected small molecules were further passed through a number of filtering toxicity assays to eliminate toxic compounds. […] The non-toxic compounds were then analyzed in a zebrafish model. […]
A cell-based readout system was used for compound selection. […] As a further test of toxicity, DAL was injected intraperitoneally at 100 mg/kg in SCID mice and signs of toxicity including cachexia, ruffled fur, diarrhea, anorexia, skin ulceration, and toxic death were monitored.
A screening strategy was developed to identify potential agents that target adhesion of endothelial cells or cancer cells to their substrate. […] The initial screening step quantified the number of cells remaining attached to their wells following incubation with each compound and subsequent washing steps. […] The agents that affect cell adhesion can be monitored through remodeling of actin filaments. […] Changes in actin assembly and cell shape after treatment with 12 compounds were determined. […]

Take `CC1(C)C=CC2=C(O1)C(=O)c1ccccc1C2=O` [DAL, dehydro-alpha-lapachone]: the Rac1 activity result on Rac1 is given as “decreased Rac1 activity in a concentration-dependent manner”. Besides, in the experiment with MDA-MB-231 cells, the “cell spreading, size and shape on fibronectin-coated plates” value is “significantly smaller than control cells and had a rounded shape”. For the same molecule, the F-actin distribution entry in the experiment on MDA-MB-231 cells (phalloidin) was “actin was accumulated close to the membrane”.
